Our source for the Activity and IC50 values is ChEMBL document CHEMBL5614369, “Design, synthesis and biological evaluation of Nrf2 modulators for the treatment of glioblastoma multiforme” (Bioorg Med Chem, 2024).

Assay [1] deals with U-87 MG. As to the kind of experiment: Antitumor activity against human U87 cells assessed as residual cell viability at 100 uM incubated for 48 hrs by CCK-8 assay relative to control. The format is functional, U-87MG ATCC. For orientation: Tetrazolium dyes change colour on reduction, which living cells bring about.
The test system of assay [2] is U-87 MG. As to the kind of experiment: Antitumor activity against human U87 cells assessed as reduction in cell viability incubated for 48 hrs by CCK-8 assay. The format is functional, cell-based, U-87MG ATCC.
For assay [3], the system named is U-87 MG. The assay is described as follows: Cytotoxicity against human U87 cells assessed as reduction in cell count at 12.5 to 200 uM incubated for 48 hrs by crystal violet staining based microscopic analysis. The class given is functional. The following applies: U-87MG ATCC, dose 12.5-200 µM.
In assay [4] the test system is U-87 MG. The assay is described as follows: Anti-tumor activity against human U87 cells assessed as reduction in cell proliferation by measuring reduction in green fluorescence intensity at 50 to 100 uM incubated for 48 hrs by Calcein AM dye based fluorescence microscopy. The class given is functional. The conditions noted are these: U-87MG ATCC, dose 50-100 µM.

Calls of active or inactive are those of the source. The rule behind the calls is not given here.

As a reminder, the IC50 is the midpoint of a concentration-inhibition curve.

As to `Cn1nnc2c(C(N)=O)ncn2c1=O` [TEMOZOLOMIDE], the Activity with U-87 MG [1] was determined as 47%.
On to `Oc1cc(O)cc(/C=C/c2ccccc2)c1` [PINOSYLVIN], for which the IC50 with U-87 MG [2] is 89 µM. Besides, the figures for the Activity entry with U-87 MG [2] (U-87MG ATCC) and in the assay with U-87 MG [1] were “Dose-Dependent Effect” and 90%, respectively. Further, the result in the assay with U-87 MG [3] and in the assay on U-87 MG [4] was Active.
